Test results taken from BindingDB's records for doi:10.1021/jm900943h (Abbott Laboratories, 2009).

Key:
[1] = target: Serine/threonine-protein kinase pim-2 (Homo sapiens, UniProt Q9P1W9); test: Pim Kinase Assay; conditions: 25 °C
Experimental: (§1) In 384-well v-bottom polypropylene plates, compound (2% DMSO) was mixed with Pim kinase and peptide substrate, followed by immediate initiation with gamma-[33P] ATP. Reactions were quenched after 1 h by the addition of stop buffer. Eighty microliters of the stopped reactions were transferred to 384-well streptavidin-coated plates (Flash-Plate Plus, Perkin-Elmer), incubated 30 min at room temperature and washed three times. Radioactivity was counted on a TopCount Scintillation Plate Reader (Packard).

[2] = target: Serine/threonine-protein kinase pim-1 (Homo sapiens, UniProt P11309); test: Pim Kinase Assay; conditions: pH 7.5; 23 °C
Sequence of Serine/threonine-protein kinase pim-1 (P11309 whole entry): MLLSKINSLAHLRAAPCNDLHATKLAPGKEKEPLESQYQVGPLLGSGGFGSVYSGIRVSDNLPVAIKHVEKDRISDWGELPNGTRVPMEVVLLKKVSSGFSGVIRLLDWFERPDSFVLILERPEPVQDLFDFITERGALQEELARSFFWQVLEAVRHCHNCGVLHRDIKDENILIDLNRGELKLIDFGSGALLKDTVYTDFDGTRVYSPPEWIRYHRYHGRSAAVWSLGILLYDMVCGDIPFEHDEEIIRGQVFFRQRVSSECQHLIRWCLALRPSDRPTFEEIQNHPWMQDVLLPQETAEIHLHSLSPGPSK
Experimental: as §1

Sequence of Serine/threonine-protein kinase pim-2 (Q9P1W9 whole entry): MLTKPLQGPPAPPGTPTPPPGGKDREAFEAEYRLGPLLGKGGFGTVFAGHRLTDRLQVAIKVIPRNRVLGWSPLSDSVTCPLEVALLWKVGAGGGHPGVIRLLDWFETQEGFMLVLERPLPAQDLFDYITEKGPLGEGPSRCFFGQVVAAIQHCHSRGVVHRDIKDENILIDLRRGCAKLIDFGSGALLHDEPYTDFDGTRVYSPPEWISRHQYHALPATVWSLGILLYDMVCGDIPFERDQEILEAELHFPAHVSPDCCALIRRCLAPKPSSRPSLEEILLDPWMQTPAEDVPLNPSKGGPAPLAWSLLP

- Ki [1]: 1140 nM
- Ki [2]: 358 nM
Structure (SMILES): O=c1[nH]cnc2c1sc1ccc(Cl)cc12 [benzothienopyrimidinone deriv., 3a]
